Laboratory results: PubChem BioAssay AID2060512 (Molecular Pharmacology Branch, DTP, NCI, 2025)

System: 186277-243-T-J2-PDC complex spheroid viability
Experiment: Anticancer human tumor 186277-243-T-J2-PDC patient-derived colon adenocarcinoma cell line growth inhibition [GQUAD]
Conditions: for IC50: curve of first compound; for viability, T/C: stronger effect = lower value
Source text: DNA G-quadruplex Stabilizer Agents in Combinations in Complex Spheroids
A high-throughput screen of multi-cell type tumor spheroids was designed to identify active combinations of DNA G-quadruplex stabilizer agents and targeted small molecules. Complex spheroids include a stromal component modeled by human endothelial cells (HUVEC) and fibroblasts modeled by human mesenchymal stem cells (MSCs). The concentration ranges selected for each drug and investigational agent were based upon clinically achievable concentrations if the clinical Cmax of the agent was known.
Compounds. The drugs and investigational agents: pidnarulex (CX-5461; NSC782164), APTO-253 (NSC789042), BRACO-19 (NSC847499), peposertib (NSC802822), ceralasertib (NSC780249), elimusertib (NSC800525), camonsertib (NSC841442), AZD-1390 (NSC803789), olaparib (NSC753686), talazoparib (NSC767125), ART-558 (NSC835418), sotorasib (NSC818433), MRTX-1133 (NSC836407), SN-38 (NSC673596), topotecan (NSC609699), etoposide (NSC141540), doxorubicin (NSC123127), gemcitabine (NSC613327), 5-fluorouracil (NSC19893), paclitaxel (NSC125973), vemurafenib (NSC761431), panobinostat (NSC761190), R-306465 (JNJ-16241199; NSC773264), adavosertib (NSC754352), TP-3654 (NSC805149), carboplatin (NSC241240), KSQ-4279 (NSC840948), and staurosporine (NSC755774) were obtained from the National Cancer Institute (NCI) Developmental Therapeutics Program Chemical Repository (34). The FDA-approved anticancer drug set is available from the NCI Developmental Therapeutics Program. […] The stock solutions were prepared in dimethyl sulfoxide (DMSO, Sigma-Aldrich, St. Louis, MO, cat. D2650) at 800-fold the tested concentration and stored at -70 degrees C prior to their use. All drugs and investigational agents were tested over a range starting from a high concentration at or near the clinical Cmax and decreasing in half-log increments. If the clinical Cmax for an agent had not been determined, the highest concentration tested was 10 microM.
2.3 Cell Culture. All cells were maintained in an incubator at 37 degrees C and 5% CO2 with 95% humidity. The PDC lines were cultured according to standard operating procedures established by the NCI PDMR. All PDCs were thawed and cultured in Matrigel-coated flasks prepared with a working solution of 1X Ham's F-12 nutrient mix, without supplementation (Invitrogen, cat. 11765054), 100 U/mL penicillin-streptomycin (Invitrogen, cat. 15140122), and 2.5% Matrigel (Corning Inc., cat. 354248) for the first three passages. The 857933-349-R-J2-PDC line was cultured in 6C/Colon 1B media, which includes advanced DMEM/F-12 (Thermo Fisher Scientific, cat. 12634028), 10 mM HEPES (Thermo Fisher Scientific, cat. 15630080), 1X GlutaMAX supplement (Thermo Fisher Scientific, cat. 35050061), 0.1 mg/mL primocin (InvivoGen, cat. ant-pm-2), 10% defined fetal bovine serum, heat inactivated (HyClone Laboratories Inc., cat. SH30070.03HI), 50% L-WRN conditioned media (ATCC, cat. CRL-3276), 1.25 mM N-Acetyl-L-cysteine (Sigma-Aldrich, cat. A9165), 10 mM nicotinamide (Sigma-Aldrich, cat. N0636), 1X B-27 supplement (Thermo Fisher Scientific, cat. 17504044), 1X N-2 supplement (Thermo Fisher Scientific, cat. 17502048), 10 microM Y-27632 dihydrochloride (Tocris Bioscience, cat. 1254), and 50 ng/mL human EGF recombinant protein (Thermo Fisher Scientific, cat. PHG0311). The 485176-168-R4-J1-PDC line was cultured in Panc media, which includes all 6C/Colon 1B media components plus 100 ng/mL human FGF-10 (Thermo Fisher Scientific, cat. 100-26), 500 nM SB-431542 (Selleckchem, cat. S1067), and gastrin (Tocris, cat. 3006).
[…]
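Note: spheroids exposed to drugs for 7 days.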
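Throughout, for viability, T/C: 100% = DMSO vehicle control viability.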

C=CCn1c(=O)c2cnc(Nc3ccc(N4CCN(C)CC4)cc3)nc2n1-c1cccc(C(C)(C)O)n1 + CN(C)c1ccc(Nc2c3ccc(NC(=O)CCN4CCCC4)cc3nc3cc(NC(=O)CCN4CCCC4)ccc23)cc1
IC50 (second compound 0.0316 µM): 174 nM | IC50 (second compound 0.1 µM): 175 nM | IC50 (second compound 0.316 µM): 200 nM | IC50 (second compound 1 µM): 189 nM | IC50 (second compound 3.16 µM): 179 nM | IC50 (second compound 10 µM): 184 nM | viability, T/C (second compound 0.0316 µM, first compound 0.0316 µM): 107% | viability, T/C (second compound 0.0316 µM, first compound 0.1 µM): 81.7% | viability, T/C (second compound 0.0316 µM, first compound 0.316 µM): 15.5% | viability, T/C (second compound 0.0316 µM, first compound 1 µM): 10.1% | viability, T/C (second compound 0.0316 µM, first compound 3.16 µM): 9.78% | viability, T/C (second compound 0.0316 µM, first compound 10 µM): 13% | viability, T/C (second compound 0.1 µM, first compound 0.0316 µM): 106% | viability, T/C (second compound 0.1 µM, first compound 0.1 µM): 83.8% | viability, T/C (second compound 0.1 µM, first compound 0.316 µM): 14.5% | viability, T/C (second compound 0.1 µM, first compound 1 µM): 8.74% | viability, T/C (second compound 0.1 µM, first compound 3.16 µM): 8.46% | viability, T/C (second compound 0.1 µM, first compound 10 µM): 11.9% | viability, T/C (second compound 0.316 µM, first compound 0.0316 µM): 96.8% | viability, T/C (second compound 0.316 µM, first compound 0.1 µM): 94.4% | viability, T/C (second compound 0.316 µM, first compound 0.316 µM): 20.9% | viability, T/C (second compound 0.316 µM, first compound 1 µM): 8.7% | viability, T/C (second compound 0.316 µM, first compound 3.16 µM): 9.7% | viability, T/C (second compound 0.316 µM, first compound 10 µM): 12.2% | viability, T/C (second compound 1 µM, first compound 0.0316 µM): 93.1% | viability, T/C (second compound 1 µM, first compound 0.1 µM): 99.1% | viability, T/C (second compound 1 µM, first compound 0.316 µM): 13% | viability, T/C (second compound 1 µM, first compound 1 µM): 9.53% | viability, T/C (second compound 1 µM, first compound 3.16 µM): 9.39% | viability, T/C (second compound 1 µM, first compound 10 µM): 12.5% | viability, T/C (second compound 3.16 µM, first compound 0.0316 µM): 110% | viability, T/C (second compound 3.16 µM, first compound 0.1 µM): 85.3% | viability, T/C (second compound 3.16 µM, first compound 0.316 µM): 15.4% | viability, T/C (second compound 3.16 µM, first compound 1 µM): 10.1% | viability, T/C (second compound 3.16 µM, first compound 3.16 µM): 9.74% | viability, T/C (second compound 3.16 µM, first compound 10 µM): 14.9% | viability, T/C (second compound 10 µM, first compound 0.0316 µM): 101% | viability, T/C (second compound 10 µM, first compound 0.1 µM): 88.6% | viability, T/C (second compound 10 µM, first compound 0.316 µM): 16% | viability, T/C (second compound 10 µM, first compound 1 µM): 10.1% | viability, T/C (second compound 10 µM, first compound 3.16 µM): 8.2% | viability, T/C (second compound 10 µM, first compound 10 µM): 12.7%
